# Experimental data published in PubChem BioAssay (NCI).
#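 The compound was tested at five concentrations on cells cultured in 96-well plates, with a 48-hour exposure period. GI50 marks 50% less growth. TGI: total growth inhibition.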
# Legend:
# Test in all cases: growth of human tumour cells (NCI), 48 h
# 786-0 renal = tested on: 786-0 renal
# A498 renal = tested on: A498 renal
# A549 NSCLC = tested on: A549 NSCLC
# BT-549 breast = tested on: BT-549 breast
# CAKI-1 renal = tested on: CAKI-1 renal
# CCRF-CEM leukemia = tested on: CCRF-CEM leukemia
# COLO 205 colon = tested on: COLO 205 colon
# DU-145 prostate = tested on: DU-145 prostate
# EKVX NSCLC = tested on: EKVX NSCLC
# HCC-2998 colon = tested on: HCC-2998 colon
# HCT-116 colon = tested on: HCT-116 colon
# HL-60(TB) leukemia = tested on: HL-60(TB) leukemia
# HOP-62 NSCLC = tested on: HOP-62 NSCLC
# HOP-92 NSCLC = tested on: HOP-92 NSCLC
# HS 578T breast = tested on: HS 578T breast
# HT29 colon = tested on: HT29 colon
# IGROV1 ovarian = tested on: IGROV1 ovarian
# K-562 leukemia = tested on: K-562 leukemia
# KM12 colon = tested on: KM12 colon
# LOX IMVI melanoma = tested on: LOX IMVI melanoma
# M14 melanoma = tested on: M14 melanoma
# MALME-3M melanoma = tested on: MALME-3M melanoma
# MCF7 breast = tested on: MCF7 breast
# MDA-MB-231 breast = tested on: MDA-MB-231 breast
# MDA-MB-435 = tested on: MDA-MB-435
# MOLT-4 leukemia = tested on: MOLT-4 leukemia
# NCI-H226 lung = tested on: NCI-H226 lung
# NCI-H23 lung = tested on: NCI-H23 lung
# NCI-H460 lung = tested on: NCI-H460 lung
# NCI-H522 lung = tested on: NCI-H522 lung
# NCI/ADR-RES ovarian = tested on: NCI/ADR-RES ovarian
# OVCAR-3 ovarian = tested on: OVCAR-3 ovarian
# OVCAR-4 ovarian = tested on: OVCAR-4 ovarian
# OVCAR-8 ovarian = tested on: OVCAR-8 ovarian
# PC-3 prostate = tested on: PC-3 prostate
# RPMI-8226 leukemia = tested on: RPMI-8226 leukemia
# RXF 393 renal = tested on: RXF 393 renal
# SF-268 CNS = tested on: SF-268 CNS
# SF-295 CNS = tested on: SF-295 CNS
# SK-MEL-2 melanoma = tested on: SK-MEL-2 melanoma
# SK-MEL-28 melanoma = tested on: SK-MEL-28 melanoma
# SK-MEL-5 melanoma = tested on: SK-MEL-5 melanoma
# SK-OV-3 ovarian = tested on: SK-OV-3 ovarian
# SN12C renal = tested on: SN12C renal
# SNB-19 CNS = tested on: SNB-19 CNS
# SNB-75 CNS = tested on: SNB-75 CNS
# SR leukemia = tested on: SR leukemia
# SW-620 colon = tested on: SW-620 colon
# T-47D breast = tested on: T-47D breast
# TK-10 renal = tested on: TK-10 renal
# U251 CNS = tested on: U251 CNS
# UACC-257 melanoma = tested on: UACC-257 melanoma
# UACC-62 melanoma = tested on: UACC-62 melanoma
# UO-31 renal = tested on: UO-31 renal
smiles,measurement,setting,value
CN(C)c1ccc2nc3ccc(=[N+](C)C)c([N+](=O)[O-])c-3sc2c1,GI50,786-0 renal,6.2 µM
same,TGI,786-0 renal,21.4 µM
same,GI50,A498 renal,7.06 µM
same,TGI,A498 renal,21.9 µM
same,GI50,A549 NSCLC,1.46 µM
same,TGI,A549 NSCLC,18.1 µM
same,GI50,BT-549 breast,8.29 µM
same,TGI,BT-549 breast,21.7 µM
same,GI50,CAKI-1 renal,2.59 µM
same,TGI,CAKI-1 renal,13.1 µM
same,GI50,CCRF-CEM leukemia,0.908 µM
same,TGI,CCRF-CEM leukemia,15.4 µM
same,GI50,COLO 205 colon,1.7 µM
same,TGI,COLO 205 colon,9.83 µM
same,GI50,DU-145 prostate,4.75 µM
same,TGI,DU-145 prostate,18.3 µM
same,GI50,EKVX NSCLC,1.67 µM
same,TGI,EKVX NSCLC,16.2 µM
same,GI50,HCC-2998 colon,5.18 µM
same,TGI,HCC-2998 colon,16.8 µM
same,GI50,HCT-116 colon,2.45 µM
same,TGI,HCT-116 colon,13.2 µM
same,GI50,HL-60(TB) leukemia,0.302 µM
same,TGI,HL-60(TB) leukemia,4.7 µM
same,GI50,HOP-62 NSCLC,8.6 µM
same,TGI,HOP-62 NSCLC,22.2 µM
same,GI50,HOP-92 NSCLC,2.09 µM
same,TGI,HOP-92 NSCLC,11.3 µM
same,GI50,HS 578T breast,3.33 µM
same,TGI,HS 578T breast,26.1 µM
same,GI50,HT29 colon,6.04 µM
same,TGI,HT29 colon,25.1 µM
same,GI50,IGROV1 ovarian,2.56 µM
same,GI50,K-562 leukemia,1.94 µM
same,TGI,K-562 leukemia,19.4 µM
same,GI50,KM12 colon,2.08 µM
same,TGI,KM12 colon,16.4 µM
same,GI50,LOX IMVI melanoma,1.32 µM
same,TGI,LOX IMVI melanoma,7.85 µM
same,GI50,M14 melanoma,1.32 µM
same,TGI,M14 melanoma,10.8 µM
same,GI50,MALME-3M melanoma,2.38 µM
same,TGI,MALME-3M melanoma,8.97 µM
same,GI50,MCF7 breast,1.79 µM
same,TGI,MCF7 breast,5.9 µM
same,GI50,MDA-MB-231 breast,0.578 µM
same,TGI,MDA-MB-231 breast,4.46 µM
same,GI50,MDA-MB-435,2.46 µM
same,TGI,MDA-MB-435,11.4 µM
same,GI50,MOLT-4 leukemia,2.3 µM
same,TGI,MOLT-4 leukemia,10.6 µM
same,GI50,NCI-H226 lung,7.97 µM
same,TGI,NCI-H226 lung,22.4 µM
same,GI50,NCI-H23 lung,1.87 µM
same,TGI,NCI-H23 lung,9.65 µM
same,GI50,NCI-H460 lung,2.59 µM
same,TGI,NCI-H460 lung,15.2 µM
same,GI50,NCI-H522 lung,1.81 µM
same,TGI,NCI-H522 lung,5.19 µM
same,GI50,NCI/ADR-RES ovarian,2.33 µM
same,TGI,NCI/ADR-RES ovarian,8.13 µM
same,GI50,OVCAR-3 ovarian,0.271 µM
same,TGI,OVCAR-3 ovarian,0.926 µM
same,GI50,OVCAR-4 ovarian,0.906 µM
same,TGI,OVCAR-4 ovarian,3.04 µM
same,GI50,OVCAR-8 ovarian,1.87 µM
same,TGI,OVCAR-8 ovarian,10.4 µM
same,GI50,PC-3 prostate,0.599 µM
same,TGI,PC-3 prostate,6.78 µM
same,GI50,RPMI-8226 leukemia,0.536 µM
same,TGI,RPMI-8226 leukemia,15.9 µM
same,GI50,RXF 393 renal,4.41 µM
same,TGI,RXF 393 renal,18.1 µM
same,GI50,SF-268 CNS,2.1 µM
same,TGI,SF-268 CNS,13.2 µM
same,GI50,SF-295 CNS,3.04 µM
same,TGI,SF-295 CNS,16.6 µM
same,GI50,SK-MEL-2 melanoma,4.54 µM
same,TGI,SK-MEL-2 melanoma,16.1 µM
same,GI50,SK-MEL-28 melanoma,10.3 µM
same,TGI,SK-MEL-28 melanoma,22 µM
same,GI50,SK-MEL-5 melanoma,1.44 µM
same,TGI,SK-MEL-5 melanoma,12.1 µM
same,GI50,SK-OV-3 ovarian,11.8 µM
same,TGI,SK-OV-3 ovarian,28.9 µM
same,GI50,SN12C renal,1.37 µM
same,TGI,SN12C renal,5.26 µM
same,GI50,SNB-19 CNS,0.483 µM
same,TGI,SNB-19 CNS,17.4 µM
same,GI50,SNB-75 CNS,2.93 µM
same,TGI,SNB-75 CNS,13.3 µM
same,GI50,SR leukemia,0.797 µM
same,TGI,SR leukemia,17.5 µM
same,GI50,SW-620 colon,2.57 µM
same,TGI,SW-620 colon,12.3 µM
same,GI50,T-47D breast,2.16 µM
same,TGI,T-47D breast,7.47 µM
same,GI50,TK-10 renal,7.46 µM
same,TGI,TK-10 renal,23.5 µM
same,GI50,U251 CNS,1.21 µM
same,TGI,U251 CNS,11.1 µM
same,GI50,UACC-257 melanoma,2.85 µM
same,TGI,UACC-257 melanoma,8.59 µM
same,GI50,UACC-62 melanoma,1.1 µM
same,TGI,UACC-62 melanoma,3 µM
same,GI50,UO-31 renal,5.98 µM
same,TGI,UO-31 renal,23.4 µM
